Experimental data as given in patent US20260262643A1, “HERBICIDAL BENZOXAZINES” (FMC CORPORATION, priority 2022, published 2026).

What was measured:
barnyardgrass [1] = assay: Test C preemergence; type: in vivo, Echinochloa crusgalli; conditions: for Plant response rating, Barnyardgrass: Preemergence
How it was run: (§1)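 Seeds sown in loam soil–sand blend received a directed preemergence soil spray of test chemical in non-phytotoxic solvent with surfactant; postemergence plants (2–10 cm, one- to two-leaf stage) were sprayed with the same formulation. Greenhouse-held 10 days, then visually rated for injury versus untreated controls, 0 (no effect) to 100 (complete control).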

blackgrass [2] = assay: Test C preemergence; type: in vivo, Alopecurus myosuroides; conditions: for Plant response rating, Blackgrass: Preemergence
How it was run: as §1

corn [3] = assay: Test C preemergence; type: in vivo, Zea mays
How it was run: as §1

green foxtail [4] = assay: Test C preemergence; type: in vivo, Setaria viridis; conditions: for Plant response rating, Foxtail, Green: Preemergence
How it was run: as §1

kochia [5] = assay: Test C preemergence; type: in vivo, Bassia scoparia; conditions: for Plant response rating, Kochia: Preemergence
How it was run: as §1

pigweed, palmer [6] = assay: Test C preemergence; type: in vivo, Amaranthus palmeri; conditions: for Plant response rating, Pigweed, Palmer: Preemergence
How it was run: as §1

ragweed [7] = assay: Test C preemergence; type: in vivo, Ambrosia artemisiifolia; conditions: for Plant response rating, Ragweed: Preemergence
How it was run: as §1

ryegrass, Italian [8] = assay: Test C preemergence; type: in vivo, Lolium multiflorum; conditions: for Plant response rating, Ryegrass, Italian: Preemergence
How it was run: as §1

soybean [9] = assay: Test C preemergence; type: in vivo, Glycine max
How it was run: as §1

wheat [10] = assay: Test C preemergence; type: in vivo, Triticum aestivum
How it was run: as §1

barnyardgrass [11] = assay: Test C postemergence; type: in vivo, Echinochloa crusgalli
How it was run: as §1

blackgrass [12] = assay: Test C postemergence; type: in vivo, Alopecurus myosuroides; conditions: 10 days
How it was run: as §1

corn [13] = assay: Test C postemergence; type: in vivo, Zea mays; conditions: 10 days, 0 to 100 scale (0 no effect, 100 complete control)
How it was run: as §1

green foxtail [14] = assay: Test C postemergence; type: in vivo, Setaria viridis; conditions: 10 days
How it was run: as §1

kochia [15] = assay: Test C postemergence; type: in vivo, Bassia scoparia; conditions: 10 days
How it was run: as §1

oat, wild = assay: Test C postemergence; type: in vivo, Avena fatua; conditions: 10 days, 0 to 100 scale (0 no effect, 100 complete control)
How it was run: as §1

pigweed, palmer [16] = assay: Test C postemergence; type: in vivo, Amaranthus palmeri; conditions: 10 days
How it was run: as §1

ragweed [17] = assay: Test C postemergence; type: in vivo, Ambrosia artemisiifolia; conditions: 10 days
How it was run: as §1

ryegrass, Italian [18] = assay: Test C postemergence; type: in vivo, Lolium multiflorum; conditions: 10 days
How it was run: as §1

soybean [19] = assay: Test C postemergence; type: in vivo, Glycine max; conditions: 10 days, 0 to 100 scale (0 no effect, 100 complete control)
How it was run: as §1

wheat [20] = assay: Test C postemergence; type: in vivo, Triticum aestivum; conditions: 10 days, 0 to 100 scale (0 no effect, 100 complete control)
How it was run: as §1

galium = assay: Test C postemergence; type: in vivo, Galium aparine; conditions: 10 days
How it was run: as §1

horseweed = assay: Test C postemergence; type: in vivo, Erigeron canadensis; conditions: 10 days
How it was run: as §1

barnyardgrass [21] = assay: Test D flooded paddy test; type: in vivo, Echinochloa crus-galli; conditions: 250 g ai/ha, applied to paddy water, visual rating after 13 to 14 days, scale 0 to 100 (0 no effect, 100 complete control)
How it was run: (§2)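 Plants grown to the 2-leaf stage; pots flooded to 3 cm above soil at treatment and held at that depth throughout. Test compounds applied directly to the paddy water. After 13 to 14 days in a greenhouse, response was rated visually versus controls on a 0 (no effect) to 100 (complete control) scale.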

ducksalad = assay: Test D flooded paddy test; type: in vivo, Heteranthera limosa; conditions: 250 g ai/ha, applied to paddy water, visual rating after 13 to 14 days, scale 0 to 100 (0 no effect, 100 complete control)
How it was run: as §2

rice = assay: Test D flooded paddy test; type: in vivo, Oryza sativa; conditions: 250 g ai/ha, applied to paddy water, visual rating after 13 to 14 days, scale 0 to 100 (0 no effect, 100 complete control)
How it was run: as §2

sedge, umbrella = assay: Test D flooded paddy test; type: in vivo, Cyperus difformis; conditions: 250 g ai/ha, applied to paddy water, visual rating after 13 to 14 days, scale 0 to 100 (0 no effect, 100 complete control)
How it was run: as §2

[22] = 500 g ai/ha, preemergence, 0 to 100 scale (0 no effect, 100 complete control)
[23] = 125 g ai/ha, 0 to 100 scale, 0 no effect, 100 complete control
[24] = Preemergence, 125 g ai/ha, 0 to 100 scale, 0 no effect, 100 complete control
[25] = 500 g ai/ha, postemergence, 0 to 100 scale (0 no effect, 100 complete control)
[26] = Postemergence, 125 g ai/ha, 0 to 100 scale (0 no effect, 100 complete control)
[27] = 1000 g ai/ha, visual rating after 10 days, 0 to 100 scale (0 no effect, 100 complete control)
[28] = Postemergence, 1000 g ai/ha, visual 0 to 100 scale (0 no effect, 100 complete control)

SMILES: Cc1ccc(-n2cnc(C(C)O)n2)cc1C(=O)N1CC(C)Oc2c(Cl)cccc21 (mixture of isomers) [Compound 358]
- Barnyardgrass plant response rating (barnyardgrass [1]; [22]): 100
- Plant response rating, Barnyardgrass (barnyardgrass [1]; [23]): 100
- Blackgrass plant response rating (blackgrass [2]; [22]): 90
- Plant response rating, Blackgrass (blackgrass [2]; [23]): 80
- Corn plant response rating (corn [3]; [22]): 70
- Plant response rating, Corn (corn [3]; [24]): 50
- Foxtail, Green plant response rating (green foxtail [4]; [22]): 100
- Plant response rating, Foxtail, Green (green foxtail [4]; [23]): 100
- Kochia plant response rating (kochia [5]; [22]): 100
- Plant response rating, Kochia (kochia [5]; [23]): 20
- Pigweed, Palmer plant response rating (pigweed, palmer [6]; [22]): 100
- Plant response rating, Pigweed, Palmer (pigweed, palmer [6]; [23]): 100
- Ragweed plant response rating (ragweed [7]; [22]): 90
- Plant response rating, Ragweed (ragweed [7]; [23]): 70
- Ryegrass, Italian plant response rating (ryegrass, Italian [8]; [22]): 100
- Plant response rating, Ryegrass, Italian (ryegrass, Italian [8]; [23]): 90
- Soybean plant response rating (soybean [9]; [22]): 100
- Plant response rating, Soybean (soybean [9]; [24]): 100
- Wheat plant response rating (wheat [10]; [22]): 90
- Plant response rating, Wheat (wheat [10]; [24]): 50
- Plant response rating, Barnyardgrass (barnyardgrass [11]; 500 g ai/ha, postemergence, 10 days, 0 to 100 scale (0 no effect, 100 complete control)): 100
- Plant response rating, Barnyardgrass (barnyardgrass [11]; Postemergence, 125 g ai/ha, 0 to 100 scale (0 no effect, 100 complete control), 10 days): 90
- Plant response rating, Blackgrass (blackgrass [12]; [25]): 100
- Plant response rating, Blackgrass (blackgrass [12]; [26]): 90
- Plant response rating, Corn (corn [13]; 500 g ai/ha, postemergence): 90
- Plant response rating, Corn (corn [13]; Postemergence, 125 g ai/ha): 90
- Plant response rating, Foxtail, Green (green foxtail [14]; [25]): 90
- Plant response rating, Foxtail, Green (green foxtail [14]; [26]): 90
- Plant response rating, Kochia (kochia [15]; [25]): 70
- Plant response rating, Kochia (kochia [15]; [26]): 40
- Plant response rating, Oat, Wild (oat, wild; 500 g ai/ha, postemergence): 80
- Plant response rating, Oat, Wild (oat, wild; Postemergence, 125 g ai/ha): 30
- Plant response rating, Pigweed, Palmer (pigweed, palmer [16]; [25]): 80
- Plant response rating, Pigweed, Palmer (pigweed, palmer [16]; [26]): 50
- Plant response rating, Ragweed (ragweed [17]; [25]): 80
- Plant response rating, Ragweed (ragweed [17]; [26]): 50
- Plant response rating, Ryegrass, Italian (ryegrass, Italian [18]; [25]): 100
- Plant response rating, Ryegrass, Italian (ryegrass, Italian [18]; [26]): 90
- Plant response rating, Soybean (soybean [19]; 500 g ai/ha, postemergence): 100
- Plant response rating, Soybean (soybean [19]; Postemergence, 125 g ai/ha): 100
- Plant response rating, Wheat (wheat [20]; 500 g ai/ha, postemergence): 80
- Plant response rating, Wheat (wheat [20]; Postemergence, 125 g ai/ha): 50
- Plant response rating, Galium (galium; [25]): 100
- Plant response rating, Galium (galium; [26]): 100
- Plant response rating, Horseweed (horseweed; [25]): 90
- Plant response rating, Horseweed (horseweed; [26]): 70
- Plant response rating, Barnyardgrass (Flood) (barnyardgrass [21]): 30
- Plant response rating, Ducksalad (Flood) (ducksalad): 95
- Plant response rating, Rice (Flood) (rice): 15
- Plant response rating, Sedge, Umbrella (Flood) (sedge, umbrella): 90

SMILES: Cc1nccc(-c2cccc(C(=O)N3C[C@H](C)Oc4c(C)cccc43)c2)n1 [Compound 250]
- Plant response rating, Barnyardgrass (barnyardgrass [1]; [27]): 90
- Plant response rating, Blackgrass (blackgrass [2]; [27]): 30
- Plant response rating, Foxtail, Green (green foxtail [4]; [27]): 100
- Plant response rating, Kochia (kochia [5]; [27]): 80
- Plant response rating, Pigweed, Palmer (pigweed, palmer [6]; [27]): 80
- Plant response rating, Ragweed (ragweed [7]; [27]): 0
- Plant response rating, Ryegrass, Italian (ryegrass, Italian [8]; [27]): 90
- Plant response rating, Barnyardgrass (barnyardgrass [11]; Postemergence, 1000 g ai/ha, 0 to 100 scale, 0 no effect, 100 complete control): 50
- Plant response rating, Blackgrass (blackgrass [12]; [28]): 20
- Plant response rating, Foxtail, Green (green foxtail [14]; [28]): 80
- Plant response rating, Kochia (kochia [15]; [28]): 70
- Plant response rating, Pigweed, Palmer (pigweed, palmer [16]; [28]): 50
- Plant response rating, Ragweed (ragweed [17]; [28]): 50
- Plant response rating, Ryegrass, Italian (ryegrass, Italian [18]; [28]): 40
- Plant response rating, Galium (galium; [28]): 50
- Plant response rating, Horseweed (horseweed; [28]): 0
- Plant response rating, Barnyardgrass (Flood) (barnyardgrass [21]): 0
- Plant response rating, Ducksalad (Flood) (ducksalad): 0
- Plant response rating, Rice (Flood) (rice): 0
- Plant response rating, Sedge, Umbrella (Flood) (sedge, umbrella): 0
